Test system: neutral/alkaline RatBrain Ceramidase
Assay: Inhibitory activity on neutral/alkaline RatBrain Ceramidase (Reference Example 1, NBD-C12-Ceramide, HPLC)
Type: biochemical, rat
Conditions: concentration of 5 μM; NBD-C12-Ceramide 0.02 mM
Experimental: As neutral/alkaline ceramidase, two kinds of ceramidase derived from Pseudomonas aeruginosa strain AN17 and ceramidase derived from a rat brain were used.
On the other hand, a crude enzyme solution of rat brain-derived ceramidase was prepared in the following manner. First, two pieces (3.5 g) of rat brain tissues were homogenized in 30 mL of 0.25 M sucrose solution with a Potter-Elvehjem homogenizer. The resulting homogenate was centrifuged at 700×g for 10 minutes, then the supernatant was centrifuged at 25,000×g for 10 minutes, and the resulting supernatant was further centrifuged at 100,000×g for 60 minutes to give precipitates which were then suspended in 3 mL of 25 mM Tris-HCl buffer (pH 8.0). Nine milliliters of 25 mM Tris-HCl buffer (pH 8.0) comprising 0.5% Triton X-100 was added to the resulting suspension which was then subjected to extraction by leaving the suspension on ice for 2 hours. […]
The inhibitory activity on the neutral/alkaline RatBrain Ceramidase was determined in the following manner. […] The reaction was terminated by adding 75 microliters of methanol, and 50 microliters of aliquot of the reaction solution was analyzed by HPLC.
HPLC analysis was carried out in the following manner. […] Detection was carried out with a fluorescence detector at an excitation light of 465 nm and a fluorescent light of 535 nm. […]

inhibition of the activity of neutral/alkaline ceramidase derived from a rat brain: 50%
Structure (SMILES): CCCC/C=C/CCCC(O)C(CCCCCCCCCCCCCCCC/C=C/CC(=O)O)C(CO)C(C)O (single isomer, unassigned) [purified substance]
